Laboratory results taken from patent US20220298486A1, “UROTHELIAL CELL INDUCTION AGENT AND METHOD FOR INDUCING UROTHELIAL CELLS” (CellAxia Inc, priority 2019, published 2022).

Experiments:
Format in all cases: cell-based, human
[1] = system: aHDFs into which F, T, L, and K had been introduced; experiment: examination of medium components (modified Uromedium) for selective proliferation of dUCs; conditions: for influence of concentration of the component on UPK2 mRNA: Uromedium with modified concentration
Procedure: (A) aHDFs into which F, T, L, and K had been introduced were cultured in “Uromedium” medium with modified concentrations of insulin, hydrocortisone, EGF, and IBMX. On Day 21, total RNA was extracted from aHDFs and control aHDFs free of gene introduction, and the gene expression level of UPK2 was measured by real-time RT-PCR. The values shown by mean±SD were normalized by β-actin mRNA expression and shown relative to the value of aHDFs free of gene introduction as 1.0 (N=3). (B) Phase-contrast microscopic images of aHDFs into which F, T, L, and K were introduced, and cultured for 21 days in “Uromedium” medium in which the concentration of hydrocortisone was modified to 0-fold and the concentration of IBMX was modified to 10-fold. Imaging magnification: ×10 (C) Phase-contrast microscopic images of aHDFs into which F, T, L, and K were introduced, and cultured for 21 days in “Uromedium” medium with or without addition of 1 μM tranylcypromine. The bar is 100 μm. (D) Phase-contrast microscopic images of aHDFs into which F, T, L, and K were introduced or not introduced, and cultured for 21 days in “Uromedium” medium or “UCM” medium. The bar is 100 μm.
“Uromedium” medium was produced according to the method of Osborn et al. (Osborn S L, (2014) Stem Cell Transl Med 3(5):610-619.). In summary fashion, the “Uromedium” medium is composed of EpiLife™ medium supplemented with 60 μM calcium (Gibco; MEP1500CA), 60 μg/mL bovine brain hypophysis extract (Gibco), 5 μg/mL human gene recombinant insulin (Diagnocine), 500 ng/mL hydrocortisone (Tokyo Chemical Industry Co., Ltd.), gentamicinamphotericin (Gibco), 2% FBS, 0.1 ng/mL human gene recombinant epidermal growth factor (EGF) (RSD), and 100 μM 3-isobutyl 1-methylxanthine (IBMX) (Sigma-Aldrich).
The “UCM” medium is composed of EpiLife™ medium supplemented with 60 μM calcium, 60 μg/mL bovine brain hypophysis extract, 5 μg/mL human gene recombinant insulin, gentamicinamphotericin, 2% FBS, 0.01 ng/mL human gene recombinant EGF, 1 mM IBMX, and 1 μM tranylcypromine (Abcam).

aHDFs [2] = experiment: real-time RT-PCR of marker mRNA in aHDFs after retroviral gene introduction; conditions: F, T, L, K-introduced aHDFs; plates uncoated or coated with collagen, poly-L-lysine, laminin; day 21
Procedure: (§1) aHDFs were seeded on a laminin-coated 12-well plate or a laminin-uncoated 12-well plate, and the gene was introduced using a retroviral vector. The cells were cultured in CnT-Prime medium or other medium, and 21 days later, observation with a phase contrast microscope, real-time PCR, and analysis of immunocytochemistry were performed. The cells were passaged in fresh culture plates and used for RNA sequencing and penetration assay. In the in vivo experiment, cells into which F, T, L, and K had been introduced were transurethrally transplanted into the injured bladder cavity of an interstitial cystitis mouse through a catheter.
(§2) aHDFs were seeded in 12-well plates coated with atelocollagen (KOKEN; I-PC30), poly-L-lysine (ScienCell), or laminin (Easy iMatrix-511 silk) at a density of 3×10^4 cells/well. After 24 hr, the medium was replaced with the retroviral suspension that was filtrated through a 0.45 μm pore filter (Toyo Roshi Kaisha, Ltd., ADVANTEC) and supplemented with 4 μg/mL polybrene. The next day, the culture supernatant was replaced with Standard Medium free of virus, and replaced with CnT-Prime or “UCM” medium 3 days later. The culture medium was changed every 3 or 4 days.
Total RNA was extracted using RNeasy Mini Kit (Qigen) according to the manufacturer's protocol. […] The relative mRNA expression levels were calculated from the following formula: […]

aHDFs [3] = experiment: epithelial (urothelial) cell colony formation, phase contrast microscope observation; conditions: F, T, L, K-introduced aHDFs; plates uncoated or coated with collagen, poly-L-lysine, laminin; day 21
Procedure: as §1, §2

EGF: human gene recombinant epidermal growth factor
mRNA expression of UPK2 ([1]; addition of 0.01-1 ng/mL EGF, day 21): increased

laminin
expression of UPK1b and UPK2 mRNAs by plate coating (aHDFs [2]): the highest | epithelial cell colony formation by plate coating (aHDFs [3]): formed only in laminin-coated plates

N[C@@H]1C[C@H]1c1ccccc1 (racemic) [tranylcypromine]
formation of urothelial cell colonies ([1]; Uromedium with addition of 1 μM tranylcypromine, 21 days): enhanced

C[C@]12CCC(=O)C=C1CC[C@@H]1[C@@H]2[C@@H](O)C[C@@]2(C)[C@H]1CC[C@]2(O)C(=O)CO [hydrocortisone]
influence of concentration of the component on UPK2 mRNA ([1]; day 21): not definitive

insulin: human gene recombinant insulin
influence of concentration of the component on UPK2 mRNA ([1]; day 21): not definitive

CC(C)Cn1c(=O)n(C)c(=O)c2[nH]cnc21 [IBMX, 3-isobutyl 1-methylxanthine]
expression of UPK2 mRNA ([1]; 1-10 mM IBMX in Uromedium, day 21): played a beneficial role | epithelial cell colony formation ([1]; medium containing 10 mM IBMX, 21 days): form epithelial cell colonies
